Test results: patent US8883748B2, “Formulation for treating fungal infection” (Lifecare Innovations Pvt. Ltd., priority 2009, dated 2014)
≈ marks a conversion by molar mass, not a printed value.

Key:
Assay in all cases: In-vitro antifungal spectrum and MIC, clinical isolates
Type in all cases: cell-based
Absidia corymbifera = settings: for MIC: in µg/mL (unit assumed)
Experimental: (§1) The experiments were carried out to determine antifungal spectrum and MIC of Nanosomal Amphotericin B vis-à-vis commonly used antifungals viz.
(§2) Amphotericin B, Voriconazole, Itraconazole and Fluconazole to ascertain efficacy against pathogenic yeasts and moulds including dermatophytes.

Alternaria spp. = settings: for MIC: in µg/mL (unit assumed)
Experimental: as §1, §2

Apophysomyces elegans = settings: for MIC: unit assumed
Experimental: as §1, §2

[1] = tested on: Aspergillus flavus, A. fumigatus; settings: for MIC: in µg/mL (unit assumed)
Experimental: as §1, §2

Aspergillus oryzae = settings: for MIC: in µg/mL (unit assumed)
Experimental: as §1, §2

Candida albicans = settings: for MIC: in µg/mL (unit assumed)
Experimental: as §1, §2

[2] = tested on: Cladophialophora bantiana; settings: for MIC: in µg/mL (unit assumed)
Experimental: as §1, §2

Cryptococcus neoformans = settings: for MIC: in µg/mL (unit assumed)
Experimental: as §1, §2

Curvularia spp. = settings: for MIC: in µg/mL (unit assumed)
Experimental: as §1, §2

Fusarium spp. = settings: for MIC: in µg/mL (unit assumed)
Experimental: as §1, §2

Microsporum gypseum = settings: for MIC: in µg/mL (unit assumed)
Experimental: as §1, §2

Mucor spp. = settings: for MIC: in µg/mL (unit assumed)
Experimental: as §1, §2

Paeciliomyces spp. = settings: for MIC: in µg/mL (unit assumed)
Experimental: as §1, §2

Penicillium marneffei = settings: for MIC: in µg/mL (unit assumed)
Experimental: as §1, §2

Phialophora verrucosa = settings: for MIC: unit assumed
Experimental: as §1, §2

Pseudallescheria boydii = settings: for MIC: in µg/mL (unit assumed)
Experimental: as §1, §2

[3] = tested on: Rhizopus arrhizus, R. pusilus; settings: for MIC: in µg/mL (unit assumed)
Experimental: as §1, §2

Scytalidum dimidatum = settings: for MIC: unit assumed
Experimental: as §1, §2

Sporothrix schenckii = settings: for MIC: in µg/mL (unit assumed)
Experimental: as §1, §2

[4] = tested on: Trichophyton mentagrophytes; settings: for MIC: in µg/mL (unit assumed)
Experimental: as §1, §2

Trichophyton rubrum = settings: for MIC: in µg/mL (unit assumed)
Experimental: as §1, §2

Compound: C[C@@H]1[C@H](O)[C@@H](C)/C=C/C=C/C=C/C=C/C=C/C=C/C=C/[C@H](O[C@@H]2O[C@H](C)[C@@H](O)[C@H](N)[C@@H]2O)C[C@@H]2O[C@](O)(C[C@@H](O)C[C@@H](O)[C@H](O)CC[C@@H](O)C[C@@H](O)CC(=O)O[C@H]1C)C[C@H](O)[C@H]2C(=O)O [Amphotericin B]
- Susceptibility category (Absidia corymbifera): Active
- MIC (Absidia corymbifera): 0.5
- Susceptibility category (Alternaria spp.): Active
- MIC (Alternaria spp.): 1-2
- Susceptibility category (Apophysomyces elegans): Active
- MIC (Apophysomyces elegans): 2 µg/mL (≈ 2.16 µM)
- Susceptibility category [1]: Active
- MIC [1]: 0.5-2
- Susceptibility category (Aspergillus oryzae): Intermediate
- MIC (Aspergillus oryzae): 2-4
- Susceptibility category (Candida albicans): Active
- MIC (Candida albicans): 0.125-1
- Susceptibility category [2]: Active
- MIC [2]: 0.5-1
- Susceptibility category (Cryptococcus neoformans): Active
- MIC (Cryptococcus neoformans): 0.25-1
- Susceptibility category (Curvularia spp.): Active
- MIC (Curvularia spp.): 0.125-1
- Susceptibility category (Fusarium spp.): Active
- MIC (Fusarium spp.): 0.5-1
- Susceptibility category (Microsporum gypseum): Active
- MIC (Microsporum gypseum): 0.5
- Susceptibility category (Mucor spp.): Active
- MIC (Mucor spp.): 1-2
- Susceptibility category (Paeciliomyces spp.): Intermediate
- MIC (Paeciliomyces spp.): 1-4
- Susceptibility category (Penicillium marneffei): Active
- MIC (Penicillium marneffei): 0.25-1
- Susceptibility category (Phialophora verrucosa): Intermediate
- MIC (Phialophora verrucosa): 4 µg/mL (≈ 4.33 µM)
- Susceptibility category (Pseudallescheria boydii): Active
- MIC (Pseudallescheria boydii): 0.5-1
- Susceptibility category [3]: Active
- MIC [3]: 0.5-2
- Susceptibility category (Scytalidum dimidatum): Active
- MIC (Scytalidum dimidatum): 0.5 µg/mL (≈ 0.541 µM)
- Susceptibility category (Sporothrix schenckii): Active
- MIC (Sporothrix schenckii): 0.5-1
- Susceptibility category [4]: Active
- MIC [4]: 0.5-2
- Susceptibility category (Trichophyton rubrum): Active
- MIC (Trichophyton rubrum): 0.25-1

Compound: OC(Cn1cncn1)(Cn1cncn1)c1ccc(F)cc1F [Fluconazole]
- Susceptibility category (Absidia corymbifera): Resistant
- MIC (Absidia corymbifera): 64
- Susceptibility category (Alternaria spp.): Resistant
- MIC (Alternaria spp.): 32-64
- Susceptibility category (Apophysomyces elegans): Resistant
- MIC (Apophysomyces elegans): 64 µg/mL (≈ 209 µM)
- Susceptibility category [1]: Resistant
- MIC [1]: 32-64
- Susceptibility category (Aspergillus oryzae): Resistant
- MIC (Aspergillus oryzae): 64
- Susceptibility category (Candida albicans): Variable
- MIC (Candida albicans): 0.125-64
- Susceptibility category [2]: Resistant
- MIC [2]: 32-64
- Susceptibility category (Cryptococcus neoformans): Variable
- MIC (Cryptococcus neoformans): 0.125-16
- Susceptibility category (Curvularia spp.): Resistant
- MIC (Curvularia spp.): 8-64
- Susceptibility category (Fusarium spp.): Resistant
- MIC (Fusarium spp.): 16-64
- Susceptibility category (Microsporum gypseum): Resistant
- MIC (Microsporum gypseum): 64
- Susceptibility category (Mucor spp.): Resistant
- MIC (Mucor spp.): 64
- Susceptibility category (Paeciliomyces spp.): Resistant
- MIC (Paeciliomyces spp.): 64
- Susceptibility category (Penicillium marneffei): Resistant
- MIC (Penicillium marneffei): 32-64
- Susceptibility category (Phialophora verrucosa): Resistant
- MIC (Phialophora verrucosa): 16 µg/mL (≈ 52.2 µM)
- Susceptibility category (Pseudallescheria boydii): Resistant
- MIC (Pseudallescheria boydii): 8-32
- Susceptibility category [3]: Resistant
- MIC [3]: 8-64
- Susceptibility category (Scytalidum dimidatum): Resistant
- MIC (Scytalidum dimidatum): 32 µg/mL (≈ 104 µM)
- Susceptibility category (Sporothrix schenckii): Resistant
- MIC (Sporothrix schenckii): 8-64
- Susceptibility category [4]: Resistant
- MIC [4]: 32-64
- Susceptibility category (Trichophyton rubrum): Variable/Resistant
- MIC (Trichophyton rubrum): 4-32

Compound: CCC(C)n1ncn(-c2ccc(N3CCN(c4ccc(OCC5COC(Cn6cncn6)(c6ccc(Cl)cc6Cl)O5)cc4)CC3)cc2)c1=O (centres unmarked) [Itraconazole]
- MIC (Absidia corymbifera): 16
- Susceptibility category (Alternaria spp.): Active
- MIC (Alternaria spp.): 1-2
- MIC (Apophysomyces elegans): 16 µg/mL (≈ 22.7 µM)
- MIC [1]: 0.03-16
- Susceptibility category (Aspergillus oryzae): Active
- MIC (Aspergillus oryzae): 0.125-0.5
- MIC (Candida albicans): 0.03-8
- Susceptibility category [2]: Active
- MIC [2]: 0.5-2
- MIC (Cryptococcus neoformans): 0.03-4
- MIC (Curvularia spp.): 8-16
- MIC (Fusarium spp.): 8-32
- Susceptibility category (Microsporum gypseum): Active
- MIC (Microsporum gypseum): 0.25-0.5
- MIC (Mucor spp.): 0.03-8
- MIC (Paeciliomyces spp.): 0.06-16
- Susceptibility category (Penicillium marneffei): Active
- MIC (Penicillium marneffei): 1-2
- MIC (Phialophora verrucosa): 16 µg/mL (≈ 22.7 µM)
- Susceptibility category (Pseudallescheria boydii): Active
- MIC [3]: 8-16
- MIC (Scytalidum dimidatum): 16 µg/mL (≈ 22.7 µM)
- MIC (Sporothrix schenckii): 0.03-16
- Susceptibility category [4]: Active
- MIC [4]: 1-2
- MIC (Trichophyton rubrum): 8-16

Compound: C[C@@H](c1ncncc1F)[C@](O)(Cn1cncn1)c1ccc(F)cc1F [Voriconazole]
- Susceptibility category (Absidia corymbifera): Variable
- MIC (Absidia corymbifera): 2-16
- Susceptibility category (Alternaria spp.): Active
- MIC (Alternaria spp.): 0.5-1
- Susceptibility category (Apophysomyces elegans): Intermediate
- MIC (Apophysomyces elegans): 8 µg/mL (≈ 22.9 µM)
- Susceptibility category [1]: Active
- MIC [1]: 0.125-1
- Susceptibility category (Aspergillus oryzae): Intermediate
- MIC (Aspergillus oryzae): 0.5-4
- Susceptibility category (Candida albicans): Variable
- MIC (Candida albicans): 0.03-8
- Susceptibility category [2]: Active
- MIC [2]: 0.25-2
- Susceptibility category (Cryptococcus neoformans): Variable
- MIC (Cryptococcus neoformans): 0.03-16
- Susceptibility category (Curvularia spp.): Active
- MIC (Curvularia spp.): 1-2
- Susceptibility category (Fusarium spp.): Intermediate
- MIC (Fusarium spp.): 0.5-4
- Susceptibility category (Microsporum gypseum): Active
- MIC (Microsporum gypseum): 0.125-0.5
- Susceptibility category (Mucor spp.): Resistant
- MIC (Mucor spp.): 8-16
- Susceptibility category (Paeciliomyces spp.): Variable
- MIC (Paeciliomyces spp.): 0.125-8
- Susceptibility category (Penicillium marneffei): Active
- MIC (Penicillium marneffei): 0.25-1
- Susceptibility category (Phialophora verrucosa): Active
- MIC (Phialophora verrucosa): 1 µg/mL (≈ 2.86 µM)
- Susceptibility category (Pseudallescheria boydii): Active
- Susceptibility category [3]: Variable
- MIC [3]: 1-8
- Susceptibility category (Scytalidum dimidatum): Active
- MIC (Scytalidum dimidatum): 0.5 µg/mL (≈ 1.43 µM)
- Susceptibility category (Sporothrix schenckii): Variable
- MIC (Sporothrix schenckii): 0.03-16
- Susceptibility category [4]: Active
- MIC [4]: 0.5-1
- Susceptibility category (Trichophyton rubrum): Active
- MIC (Trichophyton rubrum): 0.25-0.5
